{"source": "patent US20110124569A1", "about": "“MACROCYCLIC COMPOUNDS, PROTEASE INHIBITION, AND METHODS OF TREATMENT” (priority 2007, published 2011)", "key": {"[1]": {"biological_target": "T1, α-chymotrypsin (bovine pancreas) (Bos taurus, UniProt P00766)", "T1 construct": "purchased Sigma C4129", "experiment": "α-Chymotrypsin inhibition assay", "assay_type": "biochemical", "conditions": "substrate concentration near Km (0.75 mM N-succinyl-Gly-Gly-Phe-p-nitroanilide)", "description": "(§1) The test samples for 1-6 were prepared in DMSO by (log/2)-fold dilutions ranging from 1 mM to 100 pM. All assays were performed in triplicate. Phenylmethylsulfonyl fluoride (PMSF) was used as a positive control in the enzyme assays.\n(§2) Inhibitory activity against α-chymotrypsin (bovine pancreas; Sigma, C4129) was determined as follows. A 1-mg/mL solution of chymotrypsin was prepared in assay buffer (50 mM Tris-HCl/100 mM NaCl/1 mM CaCl2, pH 7.8). […] The increase in absorbance was measured for 30 min at intervals of 5 min at 405 nm."}, "[2]": {"biological_target": "T2, porcine pancreatic elastase (Sus scrofa, UniProt P00772)", "T2 construct": "purchased EPC EC134", "T2 sequence (P00772 27-266)": "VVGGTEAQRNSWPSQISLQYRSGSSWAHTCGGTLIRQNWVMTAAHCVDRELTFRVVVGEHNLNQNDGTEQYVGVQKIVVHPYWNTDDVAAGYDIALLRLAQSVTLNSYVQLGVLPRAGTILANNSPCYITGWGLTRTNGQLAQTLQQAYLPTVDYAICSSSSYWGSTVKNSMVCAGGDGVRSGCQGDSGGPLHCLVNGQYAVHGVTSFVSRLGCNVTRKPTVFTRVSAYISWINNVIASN", "experiment": "Porcine pancreatic elastase inhibition assay", "assay_type": "biochemical", "conditions": "for IC50: substrate concentration near Km (1.5 mM N-succinyl-Ala-Ala-Ala-p-nitroanilide), read-out: Porcine pancreatic elastase inhibitory activity IC50", "description": "as §1\nTo test the inhibition of porcine pancreatic elastase (Elastase-high purity; EPC, EC134), 75 μg/mL solution of elastase was prepared using Tris-HCl (pH 8.0). […] After preincubation of 165 μL of Tris-HCl (pH 8.0), 10 μL of elastase solution, and 10 μL of test samples in DMSO (5% final concentration) in a microtiter plate at 30° C. for 20 min, 15 μL of substrate solution (1.5 mM final concentration) was added to the mixture. The increase in absorbance was measured for 30 min at intervals of 5 min at 405 nm. Competitive binding was determined by plotting enzyme activity against substrate concentrations in the presence of different inhibitor concentrations (Lineweaver-Burk plot)."}, "[3]": {"tested_on": "HT29 colon adenocarcinoma cells", "experiment": "MTT-based cell viability assessment", "conditions": "highest concentration tested (50 μM)", "description": "The effects of compounds 5 and 6 on the proliferation of cancer cells was also assessed."}, "[4]": {"biological_target": "T3, trypsin from porcine pancreas (Sus scrofa, UniProt P00761)", "T3 construct": "purchased Sigma T0303", "T3 sequence (P00761 9-231)": "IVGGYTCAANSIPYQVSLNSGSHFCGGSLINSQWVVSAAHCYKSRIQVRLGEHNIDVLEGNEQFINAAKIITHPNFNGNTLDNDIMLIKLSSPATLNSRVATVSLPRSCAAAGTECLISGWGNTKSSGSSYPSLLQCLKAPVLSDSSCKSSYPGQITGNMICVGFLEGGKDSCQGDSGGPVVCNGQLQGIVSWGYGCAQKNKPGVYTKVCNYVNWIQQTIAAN", "experiment": "Trypsin inhibition assay", "assay_type": "biochemical", "description": "as §1, §2\nInhibitory activity against trypsin was assayed as described above for chymotrypsin, using trypsin from porcine pancreas (Sigma, T0303) and Nα-benzoyl-DL-arginine-4-nitroanilide hydrochloride as the substrate solution."}, "trypsin": {"tested_on": "trypsin", "conditions": "cited from earlier work"}, "chymotrypsin": {"tested_on": "chymotrypsin", "conditions": "literature, Amp-containing compound; cited from earlier work"}, "elastase": {"biological_target": "elastase (Sus scrofa, UniProt P00772)", "sequence (P00772 27-266)": "as the sequence (P00772 27-266) above", "conditions": "literature, cited from earlier work"}}, "note": "Read-outs that look alike come from different tables or passages of the source."}
{"molecule": "C/C=C1\\NC(=O)C(NC(=O)C(CCc2ccc(O)cc2)NC(=O)C(C)NC(=O)C(O)CO)C(C)OC(=O)C(C(C)C)NC(=O)C(Cc2ccc(O)cc2)N(C)C(=O)C(Cc2ccccc2)N2C(=O)C(CCC2O)NC1=O", "note": "(stereo not shown) [Compound 1, Lyngbyastatin 5]", "values": [{"measurement": "IC50", "setting": "[1]", "value": "2800 ± 300", "unit": "nM"}, {"measurement": "IC50", "setting": "[2]", "value": "3.2 ± 2", "unit": "nM"}]}
{"molecule": "C/C=C1\\NC(=O)[C@@H](NC(=O)[C@H](CCc2ccc(O)cc2)NC(=O)[C@H](C)NC(=O)[C@H](O)COS(=O)(=O)O)[C@@H](C)OC(=O)[C@H](C(C)C)NC(=O)[C@H](Cc2ccc(O)cc2)N(C)C(=O)[C@H](Cc2ccccc2)N2C(=O)[C@H](CC[C@H]2OC)NC1=O", "note": "[Compound 2, Lyngbyastatin 6]", "values": [{"measurement": "IC50", "setting": "[1]", "value": "2500 ± 800", "unit": "nM"}, {"measurement": "IC50", "setting": "[2]", "value": "3.3 ± 0.8", "unit": "nM"}]}
{"molecule": "C/C=C1\\NC(=O)C(NC(=O)C(CCC(N)=O)NC(=O)CCC)C(C)OC(=O)C(C(C)C)NC(=O)C(Cc2ccc(O)cc2)N(C)C(=O)C(Cc2ccccc2)N2C(=O)C(CCC2O)NC1=O", "note": "(stereo not shown) [Compound 4, somamide B, reference compound]", "values": [{"measurement": "IC50", "setting": "[1]", "value": "4200 ± 500", "unit": "nM"}, {"measurement": "IC50", "setting": "[2]", "value": "9.5 ± 5.2", "unit": "nM"}]}
{"molecule": "CC(=O)N1CCC[C@H]1C(=O)N[C@H](C(=O)N[C@@H]1C(=O)N[C@@H](CC(C)C)C(=O)NC2CC[C@@H](O)N(C2=O)[C@@H](Cc2ccccc2)C(=O)N(C)C(Cc2ccc(O)cc2)C(=O)N[C@@H](C(C)C)C(=O)O[C@@H]1C)[C@@H](C)O", "note": "(stereo partly shown) [Compound 5, Kempopeptin A]", "values": [{"measurement": "elastase inhibition and selectivity over chymotrypsin", "setting": "[2]", "value": "inhibited elastase with a slight selectivity over chymotrypsin"}, {"measurement": "effect on growth of HT29 cells", "setting": "[3]", "value": "did not significantly affect the growth"}]}
{"molecule": "CCCC(=O)N[C@H](C(=O)N[C@@H]1C(=O)N[C@@H](CCCCN)C(=O)N[C@H]2CC[C@@H](O)N(C2=O)[C@@H]([C@@H](C)CC)C(=O)N(C)[C@@H](Cc2ccc(OC)c(Br)c2)C(=O)N[C@@H](C(C)C)C(=O)O[C@@H]1C)C(C)C", "note": "[Compound 6, Kempopeptin B]", "values": [{"measurement": "trypsin inhibition, selectivity versus elastase and chymotrypsin", "setting": "[4]", "value": "selective in vitro trypsin inhibition"}, {"measurement": "trypsin inhibition, selectivity versus elastase and chymotrypsin", "setting": "[4]; listed as kempopeptin B", "value": "inhibited only trypsin activity"}, {"measurement": "effect on growth of HT29 cells", "setting": "[3]", "value": "did not significantly affect the growth"}]}
{"molecule": "C/C=C1\\NC(=O)C(NC(=O)C(CCc2ccc(O)cc2)NC(=O)C(C)NC(=O)C(O)COS(=O)(=O)O)C(C)OC(=O)C(C(C)C)NC(=O)C(Cc2ccc(O)cc2)N(C)C(=O)C(Cc2ccccc2)N2C(=O)C(CCC2O)NC1=O", "note": "(stereo not shown) [lyngbyastatin 4]", "values": [{"measurement": "trypsin activity upon treatment, previous findings", "setting": "trypsin; previous publication (J. Nat. Prod. 2007, 70, 124-127)", "value": "unaffected"}]}
{"molecule": "CCCCCC(=O)N[C@@H](CC(=O)O)C(=O)N[C@@H]1C(=O)N[C@@H](CCCCN)C(=O)N[C@H]2CC[C@@H](O)N(C2=O)[C@@H]([C@@H](C)CC)C(=O)N(C)[C@@H](Cc2ccc(O)cc2)C(=O)N[C@@H](C(C)C)C(=O)O[C@@H]1C", "note": "[micropeptin SD944]", "values": [{"measurement": "IC50 against trypsin", "setting": "trypsin; literature value", "value": 8.0, "unit": "µg/mL"}]}
{"molecule": "oscillapeptin C", "values": [{"measurement": "chymotrypsin inhibition", "setting": "chymotrypsin", "value": "still inhibits chymotrypsin"}, {"measurement": "elastase inhibition", "setting": "elastase; Amp-containing compound", "value": "does not inhibit elastase"}]}
{"molecule": "planktopeptin BL843", "values": [{"measurement": "protease-inhibitory activity compared with the other planktopeptins", "setting": "elastase", "value": "one order of magnitude lower"}]}
